# Laboratory results: patent US7371776B2, “Methods and compositions for treating cancer” (Mars, Incorporated, priority 2004, dated 2008)
# Columns and labels:
# Assay type in all cases: cell-based, human
# [1] = system: Cdc2; assay: Confirmation of LPS results by immunoblotting, MDA MB-231 cells
# Procedure: (§1) The proteins affected by pentamer, as detected by LPS, were analyzed further by immunoblotting. Antibodies against the following proteins were used: Cdc2 (Tyr15), FKHR (Ser256), p53 (Ser37, Ser46 and Ser392), PKC-δ (Ser643), PKC-θ (Ser643/676), pRb (Ser795 and Ser807/811), SAPK/JNK (Thr183/Tyr185) and Stat 5 (Tyr694) (all antibodies were obtained from Cell Signaling).
# (§2) Protein pellets from pentamer-treated MDA MB-231, MDA MB-468 and MCF-7 cells and corresponding DMSO-treated controls were lysed in PBS with 1% SDS and sonicated for 15 seconds at a power of five watts. Samples were then centrifuged at 10,000 rpm and supernatants transferred into clean tubes. Protein concentration was determined as descried above. Ten jig of each protein sample was separated by PAGE on 4-20% gradient gels (BioRad, Philadelphia, Pa.). Gels were either transferred to PVDF membranes (BioRad) or P-FILM membrane (stacks of 10 membranes) according to the manufacturer's instructions (20/20 Gene Systems). PVDF membranes were blocked for 1 hour in 0.5% casein solution (Vector Laboratories, Burlingame, Calif.), prior to incubation with primary antibodies. […] The membranes were incubated overnight at 4° C. in 1:500 dilutions of primary antibodies, washed three times in TBST for five minutes, incubated in HRP-conjugated secondary antibodies, washed again and incubated in ECL Plus Reagent (Amersham). Signals were visualized on BIOMAX MR film (Kodak, Rochester, N.Y.). Following incubation with primary antibodies, membranes were incubated in anti-GAPDH antibody (1:500 dilution; Chemicon, Temecula, Calif.). The presence of this protein was visualized with secondary antibody conjugated to alkaline phosphatase DuoLux substrate (Vector Laboratories).
# (§3) As a control, the PVDF membranes probed for Cdc2, FKHR, p53, and pRb were stripped according to manufacturer's instructions (Cell Signaling). After striping, membranes were washed four times for five minutes each in TBST buffer, blocked as described above, washed again and incubated in primary antibodies overnight at 4° C. The primary antibodies used were anti-total Cdc2 (1:1000 dilution, Cell Signaling), anti-total FKHR (1:1000 dilution, Cell Signaling), anti-endogenous p53 (1:1000, Cell Signaling) and anti-endogenous pRb (1:1000, Santa Cruz). The next day, membranes were washed and incubated in HRP conjugated secondary antibodies, washed again and incubated in ECL Plus Reagent (Amersham). Signals were detected as previously described. To test equality of loading, membranes were probed with anti-GAPDH antibody (1:500 dilution; Chemicon, Temecula, Calif.) as described above.
# [2] = system: FKHR; assay: as above
# Procedure: as §1, §2, §3
# [3] = system: p53; assay: as above
# Procedure: as §1, §2, §3
# [4] = system: pRb; assay: as above
# Procedure: as §1, §2, §3
# [5] = system: p53; assay: High resolution profiling (P-FILM) of p53 in MDA MB-468 cells; conditions: 100 μg/mL
# Procedure: Both p53 and pRb contain multiple phosphorylation sites, and evaluating each site separately provides a more accurate indication of each protein's potential function. Therefore, a high resolution functional profiling of the proteins was performed using P-FILM technology (20/20 Gene Systems, Inc.).
# The same protein samples as those used for PDVF membrane blotting were used. Ten μg of each protein sample of MDA MB-231 cells, and in some cases MDA MB-468 and MCF-7 cells, treated with 100 μg /mL of pentamer or DMSO-treated controls, were separated by PAGE on 4-20% gradient gels (BioRad). Proteins were transferred on a stack of ten membranes, according to manufacturer's instructions (20/20 Gene Systems, Inc.). The membranes were probed with antibodies recognizing total and phosphorylated p53 (p53Ser6, Ser9, Ser15, Ser20, Ser37, Ser46 and Ser392) at 1:1000 dilution as recommended by the manufacturer (Cell Signaling). The secondary antibody used in all cases was anti-rabbit polyclonal 1:2000 (Amersham). Signals were visualized on BIOMAX MR film (Kodak). The profiling of pRb was done using anti-phospho pRb (Ser780, Ser 795 and Ser 807/811) and anti-pRb polyclonal antibody (Cell Signaling) at a 1:1000 dilution. The secondary antibody used in all cases was anti-rabbit at 1:2000 dilution (Amersham). Image analysis was performed with Kodak 1D image analysis software. Background corrected intensity values were normalized for loading by using GAPDH intensities. Numerical analysis was performed in Excel.
# [6] = LPS analysis and PVDF membrane experiments
smiles,measurement,setting,value
"Oc1cc(O)c2c(c1)O[C@H](c1ccc(O)c(O)c1)[C@H](O)[C@H]2c1c(O)cc(O)c2c1O[C@H](c1ccc(O)c(O)c1)[C@H](O)[C@H]2c1c(O)cc(O)c2c1O[C@H](c1ccc(O)c(O)c1)[C@H](O)[C@H]2c1c(O)cc(O)c2c1O[C@H](c1ccc(O)c(O)c1)[C@H](O)[C@H]2c1c(O)cc(O)c2c1O[C@H](c1ccc(O)c(O)c1)[C@H](O)C2 [pentamer, pentameric procyanidin]",total protein expression of Cdc2,[1]; [6],not affected
same,effect on phosphorylated form of Cdc2 (Tyr15),"[1]; immunoblot, 48 and 72 hrs",had an effect
same,total protein expression of FKHR,[2]; [6],not affected
same,effect on phosphorylated form of FKHR (Ser256),"[2]; immunoblot, 48 and 72 hrs",had an effect
same,total protein expression of p53,[3]; [6],not affected
same,"effect on phosphorylated form of p53 (Ser37, Ser46 and Ser392)","[3]; immunoblot, 72 hrs",had an effect
same,"pRb, both total and phospho-specific sites",[4]; PVDF membrane reprobed,affected
same,effect on phosphorylated form of pRb (Ser795 and Ser807/811),"[4]; immunoblot, 48 and 72 hr",had an effect
same,"percentage of p53 phosphorylated at Ser392 decreased, compared to untreated controls",[5]; MD MB-468,33%
same,expression of endogenous p53,[5]; MDA MB-468,not significantly affected
same,phosphorylation of p53 Ser15 and Ser46,[5]; MDA MB-468,not significantly affected
